Data from PubChem BioAssay AID1963963 (Molecular Pharmacology Branch, DTP, NCI, 2024).
Each block holds one compound with its values, some of them ahead of it.

System: 958667-338-R-J2-PDC tumor spheroids viability
Experiment: Anticancer human tumor 958667-338-R-J2-PDC patient-derived colon adenocarcinoma cell line growth inhibition [PI3K]
Settings: spheroids with HUVEC and MSC; for IC50: curve of first compound; for viability, T/C: stronger effect = lower value
How it was run: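 Tumor cells grown as multi-cell spheroids with HUVEC endothelial cells and MSC fibroblast-like stroma were treated with targeted agents combined with inavolisib, alpelisib, duvelisib or copanlisib. Doses fell in half-log steps from near clinical Cmax, else from 10 microM. Viability was measured.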
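Note: spheroids exposed to compounds for seven days before readout.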

- IC50 (second compound 0.0316 µM): 4480 nM
- IC50 (second compound 0.1 µM): 2340 nM
- IC50 (second compound 0.316 µM): 4170 nM
- IC50 (second compound 1 µM): 3120 nM
- IC50 (second compound 3.16 µM): 3030 nM
- IC50 (second compound 10 µM): 3000 nM
Structure (SMILES): CC1(C)CCC(Nc2ncc(C(F)(F)F)c(-c3c[nH]c4c(P(C)(C)=O)c(C#N)ccc34)n2)CN1 (centres undefined) + CC(Nc1ncnc2nc[nH]c12)c1cc2cccc(Cl)c2c(=O)n1-c1ccccc1
- viability, T/C (second compound 0.0316 µM, first compound 0.0316 µM): 101%
- viability, T/C (second compound 0.0316 µM, first compound 0.1 µM): 94.6%
- viability, T/C (second compound 0.0316 µM, first compound 0.316 µM): 82.8%
- viability, T/C (second compound 0.0316 µM, first compound 1 µM): 69%
- viability, T/C (second compound 0.0316 µM, first compound 3.16 µM): 70.1%
- viability, T/C (second compound 0.0316 µM, first compound 10 µM): 25.9%
- viability, T/C (second compound 0.1 µM, first compound 0.0316 µM): 113%
- viability, T/C (second compound 0.1 µM, first compound 0.1 µM): 72.1%
- viability, T/C (second compound 0.1 µM, first compound 0.316 µM): 72%
- viability, T/C (second compound 0.1 µM, first compound 1 µM): 62.5%
- viability, T/C (second compound 0.1 µM, first compound 3.16 µM): 64.9%
- viability, T/C (second compound 0.1 µM, first compound 10 µM): 20%
- viability, T/C (second compound 0.316 µM, first compound 0.0316 µM): 98%
- viability, T/C (second compound 0.316 µM, first compound 0.1 µM): 106%
- viability, T/C (second compound 0.316 µM, first compound 0.316 µM): 80.4%
- viability, T/C (second compound 0.316 µM, first compound 1 µM): 74%
- viability, T/C (second compound 0.316 µM, first compound 3.16 µM): 63.9%
- viability, T/C (second compound 0.316 µM, first compound 10 µM): 24.6%
- viability, T/C (second compound 1 µM, first compound 0.0316 µM): 82.4%
- viability, T/C (second compound 1 µM, first compound 0.1 µM): 103%
- viability, T/C (second compound 1 µM, first compound 0.316 µM): 90.6%
- viability, T/C (second compound 1 µM, first compound 1 µM): 65.4%
- viability, T/C (second compound 1 µM, first compound 3.16 µM): 54.5%
- viability, T/C (second compound 1 µM, first compound 10 µM): 30.8%
- viability, T/C (second compound 3.16 µM, first compound 0.0316 µM): 117%
- viability, T/C (second compound 3.16 µM, first compound 0.1 µM): 96.1%
- viability, T/C (second compound 3.16 µM, first compound 0.316 µM): 86%
- viability, T/C (second compound 3.16 µM, first compound 1 µM): 64.1%
- viability, T/C (second compound 3.16 µM, first compound 3.16 µM): 60.8%
- viability, T/C (second compound 3.16 µM, first compound 10 µM): 21.8%
- viability, T/C (second compound 10 µM, first compound 0.0316 µM): 84.6%
- viability, T/C (second compound 10 µM, first compound 0.1 µM): 69.1%
- viability, T/C (second compound 10 µM, first compound 0.316 µM): 84.2%
- viability, T/C (second compound 10 µM, first compound 1 µM): 66.3%
- viability, T/C (second compound 10 µM, first compound 3.16 µM): 49.6%
- viability, T/C (second compound 10 µM, first compound 10 µM): 14.2%

- IC50 (second compound 0.00316 µM): 255 nM
- IC50 (second compound 0.01 µM): 134 nM
- IC50 (second compound 0.0316 µM): 38 nM
- IC50 (second compound 0.1 µM): 20.6 nM
- IC50 (second compound 0.316 µM): < 9.49 nM
- IC50 (second compound 1 µM): < 9.49 nM
Structure (SMILES): Cn1cnc2c(F)c(Nc3ccc(Br)cc3Cl)c(C(=O)NOCCO)cc21 + COc1c(OCCCN2CCOCC2)ccc2c3n(c(=NC(=O)c4cnc(N)nc4)nc12)CCN3
- viability, T/C (second compound 0.00316 µM, first compound 0.00949 µM): 81.6%
- viability, T/C (second compound 0.00316 µM, first compound 0.03 µM): 81.9%
- viability, T/C (second compound 0.00316 µM, first compound 0.0949 µM): 75.2%
- viability, T/C (second compound 0.00316 µM, first compound 0.3 µM): 44.6%
- viability, T/C (second compound 0.00316 µM, first compound 0.949 µM): 26.7%
- viability, T/C (second compound 0.00316 µM, first compound 3 µM): 17.3%
- viability, T/C (second compound 0.01 µM, first compound 0.00949 µM): 87.8%
- viability, T/C (second compound 0.01 µM, first compound 0.03 µM): 65.3%
- viability, T/C (second compound 0.01 µM, first compound 0.0949 µM): 62.1%
- viability, T/C (second compound 0.01 µM, first compound 0.3 µM): 34.7%
- viability, T/C (second compound 0.01 µM, first compound 0.949 µM): 24.9%
- viability, T/C (second compound 0.01 µM, first compound 3 µM): 11.6%
- viability, T/C (second compound 0.0316 µM, first compound 0.00949 µM): 71.6%
- viability, T/C (second compound 0.0316 µM, first compound 0.03 µM): 46.2%
- viability, T/C (second compound 0.0316 µM, first compound 0.0949 µM): 40.4%
- viability, T/C (second compound 0.0316 µM, first compound 0.3 µM): 28%
- viability, T/C (second compound 0.0316 µM, first compound 0.949 µM): 17.4%
- viability, T/C (second compound 0.0316 µM, first compound 3 µM): 6.46%
- viability, T/C (second compound 0.1 µM, first compound 0.00949 µM): 67.8%
- viability, T/C (second compound 0.1 µM, first compound 0.03 µM): 40.9%
- viability, T/C (second compound 0.1 µM, first compound 0.0949 µM): 23.8%
- viability, T/C (second compound 0.1 µM, first compound 0.3 µM): 16.4%
- viability, T/C (second compound 0.1 µM, first compound 0.949 µM): 8.73%
- viability, T/C (second compound 0.1 µM, first compound 3 µM): 2.61%
- viability, T/C (second compound 0.316 µM, first compound 0.00949 µM): 34.6%
- viability, T/C (second compound 0.316 µM, first compound 0.03 µM): 25.5%
- viability, T/C (second compound 0.316 µM, first compound 0.0949 µM): 13.7%
- viability, T/C (second compound 0.316 µM, first compound 0.3 µM): 6.91%
- viability, T/C (second compound 0.316 µM, first compound 0.949 µM): 3.48%
- viability, T/C (second compound 0.316 µM, first compound 3 µM): 1.27%
- viability, T/C (second compound 1 µM, first compound 0.00949 µM): 13.5%
- viability, T/C (second compound 1 µM, first compound 0.03 µM): 10.8%
- viability, T/C (second compound 1 µM, first compound 0.0949 µM): 5.1%
- viability, T/C (second compound 1 µM, first compound 0.3 µM): 3.51%
- viability, T/C (second compound 1 µM, first compound 0.949 µM): 2.89%
- viability, T/C (second compound 1 µM, first compound 3 µM): 1%
